Results published in US20260216138A1, “IDENTIFICATION OF OTUD7B INHIBITOR 7BI AND ITS APPLICATION IN REDUCING GROWTH OF NSCLC AND LEUKEMIA CELLS” (The University of North Carolina at Chapel Hill, priority 2023, published 2026).

Assays:
[1] = test system: K562 cells; assay: Leukemia cell proliferation, K562; assay type: cell-based; details: 72 hrs
Experimental: 2,000 cells from indicated NSLC cell lines were seeded into each well of 96-well plates. Cell viability was measured 3 days post-treatment using MTT assays following manufacturer's instruction. For cell viability assays with inhibitor treatment, 2,000 cells from indicated NSLC and HEK293 cell lines were seeded in 96-well plate. Inhibitor was added the next day at indicated concentration and cell viability was measured after 3-day treatment. For cell proliferation assays in THP1, K562 and HL60 cell lines, 1×10^6 cells from each indicated cell line were seeded in 12.5 cm2 cell culture flask and cells were counted by hemocytometer under microscope at indicated time to monitor cell proliferation. To test inhibitor effects on THP1, K562 and HL60 cell growth, 2×10^5 cells were seeded in 12.5 cm2 cell culture flask. Inhibitor was added the next day at indicated concentrations and cell number was counted after 3 days treatment. Three independent experiments were performed to generate error bars.

[2] = target: T1, USP9X (Homo sapiens, UniProt Q93008); assay: In vitro USP9X deubiquitination assay, K11-linked di-ub cleavage; assay type: biochemical
T1 construct: USP9X (residues 1551-1970); GST (N, cleaved yes); made in house; host or cells: E. coli BL21-Codon Plus (DE3)-RIL
T1 sequence (Q93008 1551-1970): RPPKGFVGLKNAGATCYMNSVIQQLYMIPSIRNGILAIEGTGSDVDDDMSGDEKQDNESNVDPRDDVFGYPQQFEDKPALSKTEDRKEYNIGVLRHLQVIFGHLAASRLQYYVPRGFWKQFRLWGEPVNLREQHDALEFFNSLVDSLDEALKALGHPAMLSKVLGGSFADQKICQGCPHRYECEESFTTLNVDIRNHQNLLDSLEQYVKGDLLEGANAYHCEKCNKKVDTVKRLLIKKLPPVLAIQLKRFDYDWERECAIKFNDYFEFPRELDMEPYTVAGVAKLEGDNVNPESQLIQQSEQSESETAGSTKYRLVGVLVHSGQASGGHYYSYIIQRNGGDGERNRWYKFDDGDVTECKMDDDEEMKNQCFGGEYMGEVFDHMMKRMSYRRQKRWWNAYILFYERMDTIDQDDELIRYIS
From the text: OTUD7B (residues 56-446), OTUD7A (residues 1-462), USP21 (residues 196-565), and USP9X (residues 1551-1970) proteins were expressed in E. Coli BL21-Codon Plus (DE3)-RIL cells. Through an N-terminal GST tag, the DUBs were purified by affinity chromatography using glutathione sepharose 4B (GS4B) resin. Following the liberation of the DUB from the GST tag. the DUBs were subjected to size exclusion chromatography (SEC). To form the K11-linked di-ub, individual ubiquitins (K11R-substituted donor Ub and ΔGG acceptor ubiquitin) were purified and fluorescently-labeled on an N-terminal cysteine using either Cy3- (donor) or Cy5-maleimide (acceptor). The different ubiquitins were then added to a mixture containing UBA1, UBE2S, and MgATP to form di-ub. After an overnight incubation at room temperature, UBE2S was removed by cation-exchange chromatography and the di-ub was purified by SEC. These proteins were used to monitor DUB activity in the presence or absence of the various inhibitors. The inhibitors were incubated with DUBs in a reaction buffer (20 mM Hepes pH=8.0, 200 mM NaCl, 0.25 mg/mL BSA and 0.005% Tween-20) for 5 min at room temperature and then 0.5 uM fluorescently-labeled di-ub (K11-linked) was added to start the reaction. 5×SDS-PAGE loading buffer was used to quench the reaction at the indicated time point. […] Mono-ubiquitin was quantified to generate an IC50 value. […]

[3] = target: T2, OTUD7B (Homo sapiens, UniProt Q6GQQ9); assay: Ubiquitin-AMC assay, OTUD7B; assay type: biochemical; details: 50 μM 7Bi, 300 nM OTUD7B, 2 uM ubiquitin-AMC
T2 construct: OTUD7B (residues 56-446); GST (N, cleaved yes); made in house; host or cells: E. coli BL21-Codon Plus (DE3)-RIL
T2 sequence (Q6GQQ9 56-446): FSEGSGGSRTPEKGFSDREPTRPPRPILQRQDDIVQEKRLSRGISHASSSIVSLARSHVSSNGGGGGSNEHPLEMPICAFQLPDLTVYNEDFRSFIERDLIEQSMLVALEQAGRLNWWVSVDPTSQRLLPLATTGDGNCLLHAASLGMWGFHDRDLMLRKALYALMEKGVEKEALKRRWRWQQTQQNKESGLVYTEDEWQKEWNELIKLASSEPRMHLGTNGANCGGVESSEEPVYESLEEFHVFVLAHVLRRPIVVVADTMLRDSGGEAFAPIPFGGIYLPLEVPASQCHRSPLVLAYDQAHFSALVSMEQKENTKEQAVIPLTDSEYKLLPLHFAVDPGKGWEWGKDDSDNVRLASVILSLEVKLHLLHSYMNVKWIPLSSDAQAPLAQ
Experimental: 50 μM 7Bi were incubated with 300 nM OTUD7B (residues 56-446), 10 μM OTUD7A (residues 1-462), 200 nM USP21 (residues 196-565), or 500 nM USP9X (residues 1551-1970) in reaction buffer (20 mM HEPES pH=8.0, 200 mM NaCl, 0.25 mg/mL BSA and 0.005% Tween-20) for 5 min at room temperature. Then, 2 uM ubiquitin-AMC was added to start the reaction. The fluorescence emission data was collected at an excitation wavelength of 355 nm and emission wavelength of 460 nm every 3 min. Reactions were completed three times to generate the error bars.

With `Cc1cc(NC(=O)c2cnn(C)c2C(=O)Nc2cc(C)nn2C2CCCC2)n(C2CCCC2)n1` [7Bi] the cell proliferation [1] was “reduced proliferation”, the “inhibition of USP9X” value [2] was “failed to inhibit” and the “inhibition of hydrolysis of ubiquitin-AMC by OTUD7B” value [3] was “efficiently inhibited hydrolysis of ubiquitin-AMC”.
